Measured values reported in patent US8906928B2, “Substituted pyrazolo-pyrrolo-pyridine-dione compounds” (ArQule, Inc., priority 2009, dated 2014).

Tests used:
Format in all cases: cell-based
DLD-1 = assay: MTS assay (cell growth inhibition), DLD-1; conditions: DLD-1 cells, 72 hours incubation with test compound; concentration not given
Procedure: (§1) Cells were maintained at 37° C., 5% CO2 in DMEM media supplemented with 1% fetal bovine serum, penicillin/streptomycin and fungizone (Invitrogen). Cells were seeded into 96-well tissue culture plates at 3000 per well and cultured at 37° C. for 18 hours. Test compounds were dissolved and diluted to 300× in DMSO then diluted 1:40 in DMEM. Cells were incubated with test compounds for 72 hours followed by incubation with tetrazolium compound (3-(4,5-dimethylthiazol-2-yl)-5-(3-carboxymethoxyphenyl)-2-(4-sulfophenyl)-2H-tetrazolium, inner salt; MTS) and the electron coupling reagent, phenazine methosulfate (PMS) for 4 hours. […] The ability of compounds to inhibit cell growth in this assay is correlated with the reduction of dehydrogenase enzyme activity found in metabolically active cells. The measurement of the absorbance of the formazan was assessed using an ENVISION™ (Perkin Elmer) microplate reader at 492 nm. The calculated IC50 value is the concentration of the test compound that causes a 50% decrease in the absorbance.

Kato III = assay: MTS assay (cell growth inhibition), Kato III; conditions: Kato III cells, 72 hours incubation with test compound; concentration not given
Procedure: as §1

MDA-MB = assay: MTS assay (cell growth inhibition), MDA-MB; conditions: MDA-MB cells, 72 hours incubation with test compound; concentration not given
Procedure: as §1

NCI-H1299 = assay: MTS assay (cell growth inhibition), NCI-H1299; conditions: NCI-H1299 cells, 72 hours incubation with test compound; concentration not given
Procedure: as §1

PACA-2 = assay: MTS assay (cell growth inhibition), PACA-2; conditions: PACA-2 cells, 72 hours incubation with test compound; concentration not given
Procedure: as §1

PC-3 = assay: MTS assay (cell growth inhibition), PC-3; conditions: PC-3 cells, 72 hours incubation with test compound; concentration not given
Procedure: as §1

Structure (SMILES) | MTS CELL KILL DATA (% INHIBITION) DLD-1 (DLD-1) | MTS CELL KILL DATA (% INHIBITION) Kato III (Kato III) | MTS CELL KILL DATA (% INHIBITION) MDA-MB (MDA-MB) | MTS CELL KILL DATA (% INHIBITION) NCI-H1299 (NCI-H1299) | MTS CELL KILL DATA (% INHIBITION) PACA-2 (PACA-2) | MTS CELL KILL DATA (% INHIBITION) PC-3 (PC-3)
O=C1c2cnc3[nH]ncc3c2C(=O)N1Cc1c(F)ccc(Cl)c1F [Example 34, 7-(3-chloro-2,6-difluorobenzyl)pyrazolo[3,4-b]pyrrolo[3,4-d]pyridine-6,8(3H,7H)-dione] | A (A = 80-100% INHIBITION) | A (A = 80-100% INHIBITION) | A (A = 80-100% INHIBITION) | A (A = 80-100% INHIBITION) | A (A = 80-100% INHIBITION) | A (A = 80-100% INHIBITION)
CC(C)OCCN1C(=O)c2cnc3[nH]ncc3c2C1=O [Example 16, 7-(2-isopropoxyethyl)pyrazolo[3,4-b]pyrrolo[3,4-d]pyridine-6,8(3H,7H)-dione] | C (C = <50% INHIBITION) | C (C = <50% INHIBITION) | B (B = 50-79% INHIBITION) | C (C = <50% INHIBITION) | B (B = 50-79% INHIBITION) | C (C = <50% INHIBITION)
O=C1c2cnc3[nH]ncc3c2C(=O)N1Cc1ccccc1Br [Example 99, 7-(2-bromobenzyl)pyrazolo[3,4-b]pyrrolo[3,4-d]pyridine-6,8(3H,7H)-dione] | C (C = <50% INHIBITION) | C (C = <50% INHIBITION) | C (C = <50% INHIBITION) | C (C = <50% INHIBITION) | C (C = <50% INHIBITION) | C (C = <50% INHIBITION)
CCCCN(CCCC)CCN1C(=O)c2cnc3[nH]ncc3c2C1=O [Example 18, 7-[2-(dibutylamino)ethyl]pyrazolo[3,4-b]pyrrolo[3,4-d]pyridine-6,8(3H,7H)-dione] | C (C = <50% INHIBITION) | C (C = <50% INHIBITION) | A (A = 80-100% INHIBITION) | C (C = <50% INHIBITION) | C (C = <50% INHIBITION) | A (A = 80-100% INHIBITION)
Cc1cccc(N(CCC#N)CCN2C(=O)c3cnc4[nH]ncc4c3C2=O)c1 [Example 134, 3-{[2-(6,8-dioxo-6,8-dihydropyrazolo[3,4-b]pyrrolo[3,4-d]pyridin-7(3H)-yl)ethyl](3-methylphenyl)amino}propanenitrile] | C (C = <50% INHIBITION) | C (C = <50% INHIBITION) | C (C = <50% INHIBITION) | C (C = <50% INHIBITION) | C (C = <50% INHIBITION) | C (C = <50% INHIBITION)
O=C1c2cnc3[nH]nc(-c4cccc(F)c4)c3c2C(=O)N1CCc1ccccc1 [Example 165, 1-(3-fluorophenyl)-7-(2-phenylethyl)pyrazolo[3,4-b]pyrrolo[3,4-d]pyridine-6,8(3H,7H)-dione] | A (A = 80-100% INHIBITION) | A (A = 80-100% INHIBITION) | A (A = 80-100% INHIBITION) | C (C = <50% INHIBITION) | A (A = 80-100% INHIBITION) | A (A = 80-100% INHIBITION)
COc1cc(Cl)ccc1CN1C(=O)c2cnc3[nH]ncc3c2C1=O [Example 33, 7-(4-chloro-2-methoxybenzyl)pyrazolo[3,4-b]pyrrolo[3,4-d]pyridine-6,8(3H,7H)-dione] | C (C = <50% INHIBITION) | C (C = <50% INHIBITION) | A (A = 80-100% INHIBITION) | C (C = <50% INHIBITION) | C (C = <50% INHIBITION) | C (C = <50% INHIBITION)
